Entries after “also recorded” stand apart in the source; their conditions may differ.
Assays:
[1] = In vivo substrate pharmacokinetics (plasma and brain); parameters: species or system C57BL/6 mice; conditions: for concentration at 5 min: male, C57BL/6, mouse, brain, ip, 5 min after i.p. 1.3 µmol, wild-type mice
Protocol: PK measurements were performed at Shanghai ChemPartner for Fz and compound 6 in 6- to 8-week-old overnight-fasted male C57BL/6 mice. Fz and compound 6 were formulated as clear solutions in 10% ethanol, 10% glycerol, 10% hydroxypropyl-β-cyclodextrin (Sigma-Aldrich), 35% PEG-300 and 35% water. Freshly prepared injectable doses (i.p., 20 mg per kg body weight for Fz and 21.6 mg per kg body weight for compound 6) were administered at 20 ml kg^–1. Each of the two measurement series consisted of four mice and two time points (series 1, predose and 0.083 h; series 2, 0.083 h and 0.167 h).
At each time point, ~90 µl of blood was collected into a K2EDTA tube via facial vein bleeding. Plasma samples were put on ice and centrifuged to obtain plasma samples (2,000g for 5 min at 4 °C) within 15 min of collection. The plasma samples were stored at –70 °C until analysis. For analysis, 20 µl of plasma sample was added to 20 µl of stabilizer (80:20 (vol:vol) mixture of 200 mg ml^–1 EDTA and 100 mM L-ascorbic acid in water).
At the terminal point of each series, a midline incision was made in the animal’s scalp, and the skin was retracted. The skull overlying the brain was removed. The whole brain was collected, rinsed with cold saline, dried on filtrate paper, weighed and snap-frozen by placing it into dry ice. No abnormal symptoms were observed during the studies. The brain samples were homogenized with 4 ml of stabilizer (80:20 (vol:vol) mixture of 200 mg ml^–1 EDTA and 100 mM L-ascorbic acid in water) per gram of tissue. The above samples (plasma or brain) were mixed with 120 µl of internal standard (Glipizide, 100 ng ml^–1) in acetonitrile. […] Compound concentrations were quantified using LC–MS/MS detection. […]
PK parameters were determined by the non-compartmental model of the non-compartmental analysis tool, Pharsight Phoenix WinNonlin 8.2 software. […] When the number of detected time points after Tmax was less than 3, the terminal half-life and the area under the plasma concentration-time curve from zero to infinity were not calculated.

[2] = Solubility in aqueous formulation with poloxamer-407 (P-407); format: physicochemical
Protocol: Stock samples of solid formulated Fz analogs were prepared using the following protocol. First, P-407 (Pluronic F127) was placed into a screw-cap glass vial. The polymer was then heated to 75 °C in a water bath until melted. Fz analogs dissolved in ethanol were added to the hot polymer, mixing well with a thin spatula. Additional rinses of Fz analogs in ethanol were added to the hot polymer for quantitative transfer. The solvent was then removed under vacuum. This concentrated sample was diluted with water to make a dispensing mixture of 4–9 mM Fz analogs in water. Next, this aqueous stock was aliquoted into glass vials, frozen and lyophilized overnight to give a yellow cake. For i.p. injection into mice, DPBS (Corning, 21-031-CV) was added to the vial and rocked to create a clear solution.

[3] = Toxicity in mice: necropsy and histopathology; format: in vivo, C57BL/6 mice; parameters: key: 0: absent; 1: present; conditions: individual mice
Protocol: Male C57BL/6 mice of 2 months of age were killed by CO2 asphyxiation and cardiac exsanguination. All mice were weighed, and a complete gross examination of the external and internal organs was performed. […] Formalin-fixed tissues were processed routinely, embedded in paraffin, sectioned at 5 μm and stained with hematoxylin and eosin. All slides were blindly evaluated for histologic treatment-related effects (Supplementary Table 1) by a board-certified veterinary pathologist.

Antares = Antares (Oplophorus gracilirostris, UniProt Q9GV45, A31E/A60N/A81I/F95D/I117V/K70R/L54V/L99Q/M102K/N193R/P142E/Q151K/Q38R/Q45L/V71I/Y165I); test: Comparison of bioluminescence in luciferase-transduced (AAV) mouse brain hippocampus; format: in vivo, J:NU mice; parameters: P2A-mNeonGreen (self-cleaving; mNeonGreen is separated and a P2A remnant stays on Antares) (C); expressed in transfected cells; host or cells: hippocampus of J:NU mice transduced with AAV.DJ
Antares, sequence (Q9GV45 other isoform, or with tags, fused parts or gaps with the stated changes): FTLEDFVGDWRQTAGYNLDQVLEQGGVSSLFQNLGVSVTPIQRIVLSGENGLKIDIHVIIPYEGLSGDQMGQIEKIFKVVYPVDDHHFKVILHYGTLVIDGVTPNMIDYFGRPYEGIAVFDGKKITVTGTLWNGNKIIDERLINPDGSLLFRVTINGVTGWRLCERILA
Description: For AAV packaging, pAAV-CMV-AkaLuc-P2A-mNeonGreen-WPRE plasmid and pAAV-CMV-Antares-P2A-mNeonGreen-WPRE were amplified and purified by a PureLink Expi endotoxin-free maxi plasmid purification kit (Invitrogen) and were sent to Stanford Gene Vector and Virus Core to produce and titer AAV.DJ vectors. Under sterile conditions, 12-week-old male J:NU mice (Jackson Laboratory, 007850) were anesthetized with isoflurane and secured in a stereotaxic frame (RWD Life Science), and a hole the size of the needle was drilled through the skull. A Hamilton syringe with a 33-gauge needle was inserted at anteroposterior −2.2 mm, mediolateral +1.7 mm and dorsoventral −1.7 mm. […] The needle was left in place for 3 min after each injection to minimize upward flow of viral solution. Two to 3 weeks after AAV infection, mice were injected i.p. with the indicated amount of CFz, Akalumine or FFz and imaged on the Ami HT (binning of 1 × 1 and exposure time of 10 s).

| Compound | concentration at 5 min [1] [nM] | solubility of 1.3 μmol in P-407 formulation ([2]; 1.3 μmol) | bioavailability from plasma concentrations ([1]; i.p. 1.3 µmol, plasma at 5 and 10 min, vs Fz) | solubilization of 4.2 µmol in P-407 formulation ([2]; 4.2 µmol) | HT, heart telangiectasia score ([3]; 1 day, 4.2 µmol, 20 mg P-407) | HPMC, heart perivascular myxomatous change score ([3]; 3 days, 4.2 µmol, 20 mg P-407) | HT, heart telangiectasia score ([3]; 3 days, 4.2 µmol, 20 mg P-407) | HPMC, heart perivascular myxomatous change score ([3]; 5 days, 1.3 µmol, 12 mg P-407) | HT, heart telangiectasia score ([3]; 5 days, 1.3 µmol, 12 mg P-407) | peak signal relative to 3.0 µmol of AkaLumine (Antares; 1.3 µmol CFz i.p., Antares and AkaLuc AAV co-infected hippocampus) | brightness relative to 3 µmol of AkaLumine (Antares; CFz dose 3 µmol i.p., Antares and AkaLuc AAV co-infected hippocampus, listed as CFz) | brightness relative to FFz (Antares; i.p., Antares AAV in hippocampus) |
| --- | --- | --- | --- | --- | --- | --- | --- | --- | --- | --- | --- | --- |
| O=c1c(Cc2ccco2)nc2c(Cc3ccccc3)[nH]c(-c3ccccc3)cn1-2 [Fz, furimazine, reference compound] | 1100 | not soluble in P-407 | – | – | – | – | – | – | – | – | – | – |
| O=c1c(Cc2ccco2)nc2c(Cc3ccccc3)[nH]c(-c3cccc(F)c3F)cn1-2 [compound 6, cephalofurimazine] | 1400 | – | improved bioavailability after i.p. injection | a small amount of CFz residue already remained with 20 mg of P-407 but not 30 mg | 1 | 1 | 1 | 1 | 1 | comparable peak signal | threefold more signal; also recorded: about threefold higher | brighter than FFz by at least an order of magnitude |

Source: paper PMC10229426, “An optimized bioluminescent substrate for non-invasive imaging in the brain” (Nature Chemical Biology, 2023)
